Assay results published in US9586928B2 (The Scripps Research Institute, priority 2011, dated 2017).

Tests used:
T regulatory cells = assay: T regulatory cell differentiation of splenocytes (RTPCR, Foxp3 FACS); format: cell-based, murine
Method: Therefore, the environmental cues associated with the concentration of TGF[…] dictates the balance between TH17 and T regulatory cell differentiation. In light of the reciprocal relationship between these two cell types, we assessed whether SR1555 affected the development of T regulatory cells in vitro. Splenocytes were cultured under T regulatory cell polarizing conditions (TGFβ and IL-2) for 3 days. […] To determine whether the gene expression data would correlate with protein expression, we again cultured splenocytes for 5 days under T regulatory cell polarizing conditions in the presence of DMSO or SR1555 and examined the expression of Foxp3 by intracellular cytokine FACS analysis.
Splenocytes were differentiated under the following conditions: iTreg-10 μg/mL anti-IFNγ, 10 μg/mL anti-IL-4, and 2 ng/mL TGFβ (R&D Systems); 20 ug/mL anti-IFNγ, 20 ug/mL anti-IL-4, 1 ng/mL TGFβ, and 10 ng/mL IL-6 (R&D Systems) for TH17 conditions. All cultures were stimulated with 1 μg/mL anti-CD3 (eBiosciences) and 1 μg/mL anti-CD28 (eBiosciences). Four to five days after activation, all cells were restimulated with 5 ng/mL phorbol-12-myristate-13-acetate (PMA) (Sigma) and 500 ng/mL ionomycin (Sigma) for 2 hours with the addition of GolgiStop (BD Bioscience) for an additional 2 hours before intracellular staining. Cells were cultured in RPMI 1640 medium (Invitrogen) with 10% FBS and antibiotics.
RNA extraction and QRT-PCR analysis was performed as previously described.

RORα = target: T1, RORα (Homo sapiens, UniProt P35398); assay: Gal4-RORα LBD / UAS luciferase cotransfection assay; format: cell-based; details: Gal4 chimeric cotransfection
T1 construct: expressed in transfected cells; host or cells: HEK293T
T1 sequence (P35398 272-510 limits assumed): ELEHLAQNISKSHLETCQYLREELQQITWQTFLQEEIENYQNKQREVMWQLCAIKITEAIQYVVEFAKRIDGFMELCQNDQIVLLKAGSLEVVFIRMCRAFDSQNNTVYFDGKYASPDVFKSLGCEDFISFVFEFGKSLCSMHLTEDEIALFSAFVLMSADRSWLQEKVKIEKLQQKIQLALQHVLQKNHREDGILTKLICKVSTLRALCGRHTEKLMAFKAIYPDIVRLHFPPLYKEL
Method: The cells were treated with either DMSO or various compounds as indicated four hours after replating. Following additional 20 hour incubation, luciferase levels were assayed by one-step addition of 20 μL BriteLite (Perkin Elmer) and read using an Envision multilabel plate reader (Perkin Elmer).
Cotransfection assays were performed as previously described in HEK293 cells (Gal4 cotransfection assay or IL-17 luciferase reporter)[8]. HEK293 and the mouse lymphoma EL4 (ATCC) cells were maintained in DMEM supplemented with 10% FBS plus antibiotics (penicillin and streptomycin; Invitrogen).

EL-4 cells = assay: Intracellular IL-17 in PMA/ionomycin stimulated EL-4 cells (flow cytometry); format: cell-based, murine; details: 5 μM, compared to vehicle treated cells
Method: The treatment of EL4 with SR2211 repressed the Il17 gene expression to a greater extent as compared to digoxin. […] In order to measure the effect of SR2211 on IL-17 production, we determined the intracellular levels of IL-17 using flow cytometry. After the stimulation of EL-4 cells with PMA/ionomycin for 3 hr, the cells were treated with BD GolgiPlug™ (protein transport inhibitor) to allow intracellular accumulation of cytokines. After 2 hr, the cells were fixed and stained to analyze the IL-17 by flow cytometry.
For intracellular cytokine staining, cells were stimulated with PMA (50 ng/Ml) and lonomycin (1 ug/ml) for 5 hrs. After 3 hrs of incubation, BD Golgiplug (BD Bioscience) was added and incubated for 2 hrs. Then, cells were fixed, permeabilized, and stained with PEIL17A Ab (BD Biosciences). Cell sorting was performed using LSRII (BD Biosciences). • 1. Ivanov, I I; McKenzie, B. S.; Zhou, L.; Tadokoro, C. E.; Lepelley, A.; Lafaille, J. J.; Cua, D. J.; Littman, D. R. (2006) The orphan nuclear receptor RORgammat directs the differentiation program of proinflammatory IL-17+ T helper cells. Cell 126, 1121-1133. • 2. Nakae, S.; Nambu, A.; Sudo. K.; Iwakura. Y. (2003) Suppression of immune induction of collagen-induced arthritis in IL-17-deficient mice. J Immunol 171, 6173-6177. • 3. Jetten. […]

For OC(c1ccc(-c2ccc(CN3CCN(Cc4ccncc4)CC3)cc2)c(F)c1)(C(F)(F)F)C(F)(F)F [SR2211, 1,1,1,3,3,3-hexafluoro-2-(2-fluoro-4′-((4-(pyridin-4-ylmethyl)piperazin-1-yl)methyl)-[1,1′-biphenyl]-4-yl)propan-2-ol], the “T regulatory cell proliferation” value (T regulatory cells) was “does not alter T regulatory cell proliferation”, the “effect on transcriptional activity of RORα” value (RORα) was “did not have any impact on the transcriptional activity of RORα” and the IL-17 intracellular staining (EL-4 cells) was “significant inhibition of IL-17 intracellular staining”.
